Where “and” joins values, the source holds several entries; their conditions need not be identical. Equal values may be shown once.
Key:
[1] = system: patient with Lewy Body dementia; assay: Case study, Lewy Body dementia; format: in vivo, human; conditions: Lewy Body dementia patient
Experimental: The patient started taking acetyl-leucine (3 g/day for one week; 5 g/day thereafter) and was evaluated after four weeks. […] Medication was reduced to 3 g/day, and the patient was instructed to stop medication about two weeks later.

[2] = system: patient with Spinocerebellar Ataxia (SCA) 1; assay: Case study, Spinocerebellar Ataxia (SCA) 1; format: in vivo, human
[3] = system: patients with vertigo; conditions: clinical results reported by various authors; cited from earlier work
[4] = system: subjects with no apparent dysfunction in cognitive ability or movement/balance; assay: Balancing ability (eyes closed, non-dominant foot lifted); format: in vivo, human
Experimental: Due to reported improvement in balance on treatment we measured balancing ability at the end of the treatment period and at the end of the washout period. This assessment required the subject to close their eyes and lift their non-dominant foot around 6 inches off the ground. The subject was then timed to see how long they could remain upright and without significant wobbles. This was repeated three times, and the values averaged. […] This assessment required the subject to close their eyes and lift their non-dominant foot around 6 inches off the ground. The subject was then timed to see how long they could remain upright and without significant wobbles. This was repeated three times, and the values averaged. We measured balancing ability at the end of the treatment period and at the end of the washout period. This assessment required the subject to close their eyes and lift their non-dominant foot around 6 inches off the ground. The subject was then timed to see how long they could remain upright and without significant wobbles. This was repeated three times, and the values averaged.

[5] = system: subjects with no apparent dysfunction in cognitive ability or movement/balance; assay: Psychomotor Vigilance Task (Mind Metrics App); format: in vivo, human
Description: For example, the Psychomotor Vigilance Task (PVT) is a sustained-attention, reaction-timed task that measures the speed with which subjects respond to a visual stimulus. The subject monitors a screen and presses the screen as quickly as possible upon the appearance of visual stimuli. The visual stimuli will then disappear and reappear (at irregular time intervals) e.g., 10 times over the course of the test, with the subject touching the screen as quickly as possible upon each reappearance. Test performance is quantified from an average of the e.g. 10 reaction times. The subject's reaction speed and alertness was assessed using the Mind Metrics App (Psychomotor Vigilance Task, 10 trials per test). The Psychomotor Vigilance Task (PVT) is a sustained-attention, reaction-timed task that measures the speed with which subjects respond to a visual stimulus. The subject is required to monitor a screen and press the screen as quickly as possible upon the appearance of visual stimuli. The visual stimuli will then disappear and reappear (at irregular time intervals) 10 times over the course of the test, with the subject touching the screen as quickly as possible upon each reappearance. Test performance is quantified from an average of the 10 reaction times. […] The subject was assessed for 2 weeks prior to taking acetyl-leucine, which constitutes the baseline period. […] Medication was taken at least 2 hours after and 30 minutes prior to eating. The 5 g daily dose was taken in 3 separate doses throughout the day—2 g upon waking, 1.5 g prior to lunch and 1.5 g prior to the evening meal. Daily treatments and assessments continued for 4 weeks. […]

[6] = system: person with balance disorder/senile gait disorder; assay: Case study Example 23; format: in vivo, human
[7] = system: wild-type (Npc1+/+) mice; assay: Gait analysis (CatWalk); format: in vivo, mouse; conditions: eight weeks of age
Experimental: (§1) Separate groups of Npc1^−/− and Npc1^+/+ mice were left untreated, as controls. Gait analysis was performed on mice at eight weeks of age using a CatWalk® 15.0 system according to manufacturer's instructions (Noldus, Nottingham, UK). Five runs were recorded per animal. CatWalk® parameters measured were: • 1. Stand Mean: average duration (s) of paws in contact with glass plate; • 2. Step Cycle: duration (s) between two consecutive contacts of the same paw; • 3. Duty Cycle: percentage of time paws in contact with plate compared with time to complete a step cycle; • 4. Step Sequence (AB): percentage of time spent walking in LF-RH-RF-LH alternating pattern (LF: left front; RH: right hind; RF: right front; LH left hind); • 5. Cadence: step per seconds in a trial; • 6. Diagonal Support: percentage of time with simultaneous contact of diagonal paws with the glass plate (RF&LH or RH&LF). Motor Function Analysis

[8] = system: Npc1−/− mice; assay: Gait analysis (CatWalk); format: in vivo, mouse; conditions: eight weeks of age
Experimental: as §1

[9] = system: Sandhoff disease patient fibroblasts; assay: Glycosphingolipid (GSL) levels via HPLC; format: cell-based, human; conditions: 1 mM for 6 days
[10] = system: patients with downbeat nystagmus; assay: Case studies, downbeat nystagmus; format: in vivo, human
[11] = system: patient with spinocerebellar ataxia 28 (SCA 28); assay: Case study, spinocerebellar ataxia 28; format: in vivo, human; conditions: SCA 28 patient, about one month, 5 g per day
Experimental: A gait analysis was performed before treatment commenced. After about one month of treatment, medication was stopped and the patient was evaluated. […] The patient reported that they no longer walked like a robot and could climb the stairs without using the banisters.

[12] = system: person with postural imbalance and gait disorder; assay: Case study Example 24; format: in vivo, human
Experimental: The patient was treated with Tanganil® 500 mg in 3 separate doses throughout the day—1 g upon waking, 1 g prior to lunch and 1 g prior to the evening meal for one week, followed by 2 g upon waking, 1.5 g prior to lunch and 1.5 g prior to the evening meal.

[13] = one line per subject (age/gender 66 M, 29 M, 55 F, 50 M, 53 M, 48 F), listed as acetyl-leucine
[14] = DBN Patient 1, approximately 14 weeks

CC(=O)NC(CC(C)C)C(=O)O (racemic) [acetyl-DL-leucine]
Patient report on treatment ([1]; after four weeks, 3 g/day then 5 g/day): increased fatigue and a deterioration of balance and speech
Patient report on decreased dose ([1]; reduced to 3 g/day): did not report improvement of symptomatology with the decreased dose
Symptoms ([2]; three weeks on medication, 5 g/day): all symptoms significantly improved
Intensity of signs and symptoms after stop ([2]; two weeks after medication was stopped): the same as before therapy
improvement in vertigo symptomology (share of cases) [3]: more than 95%
Time subject remained balanced ([4]; person one, end of the washout period): 8 s
Time subject remained balanced ([4]; person one, last day of the treatment period): 12 s
Time subject remained balanced ([4]; person three, end of the washout period): 4.01 s
Time subject remained balanced ([4]; person three, last day of the treatment period): 7.27 s
Time subject remained balanced ([4]; person two, end of the washout period): 3.1 s
Time subject remained balanced ([4]; person two, last day of the treatment period): 7.9 s
% change in Reaction Time ([5]; on-treatment vs baseline, one line per subject (66 M, 29 M, 55 F, 50 M, 53 M, 48 F), listed as acetyl-leucine): −3.593% and 1.408% and 8.13% and −10.24% and −7.474% and −30.86%
Details on Subjective Improvement ([5]; one line per subject): Improvement in general
Statistically significant improvement in PVT performance on treatment? [5, 13]: Yes (4×) and No (2×)
Subjective Improvement on treatment? [5, 13]: Yes (5×) and No
Adverse effects ([5]; person five): None reported
Subjective measurements ([5]; person five): feeling less tired than usual
Adverse effects ([5]; person four): None reported
Subjective measurements ([5]; person four): improvement in general alertness
Adverse effects ([5]; person one): None reported
Subjective measurements ([5]; person one): shortening of the time required to go from ‘asleep’ to ‘fully awake’
Adverse effects ([5]; person six): None reported
Subjective measurements ([5]; person six): no difference between on and off medication
Subjective measurements ([5]; person three): improvement in general alertness
Adverse events ([5]; person three, first week on medication, one occasion): mild dizziness/lightheadedness
Adverse effects ([5]; person two): None reported
Subjective measurements ([5]; person two): improvement in general alertness
Frequency of falls ([6]; Day 14): significant reduction in the frequency of falls
Hypokinetic-rigid syndrome ([6]; Day 14): No change of hypokinetic-rigid syndrome
Dizziness symptoms ([6]; Day 14, 3 then 5 gram per day): improvement of dizziness symptoms
Dizziness after suspension ([6]; two days after suspension of treatment): increase of dizziness symptoms
Gait properties vs untreated littermates [7]: no significant difference in gait properties
Gait properties vs untreated littermates [8]: significantly improved gait
GSL levels [9]: trend towards decreased GSL levels
Effect of temporary suspension of the medication ([10]; DBN Patient 1): considerable deterioration
Side-effects ([10]; DBN Patient 1, 5 gram per day): no side-effects resulted
Benefit (patient report) ([10]; DBN Patient 1, after 10 days, 3 g then 5 gram per day): significant benefit
Nystagmus (clinical examination) [10, 14]: reduction of the nystagmus
Postural sway (posturography) [10, 14]: reduction of postural sway
Oscillopsia / reading and writing ([10]; DBN Patient 1, approximately 14 weeks after starting): reduced oscillopsia
Gait ([10]; DBN Patient 2, 3 g/day then 5 g/day): improvement of gait
Downbeat nystagmus (video-oculography) ([10]; DBN Patient 2, on treatment): improved
Symptomatology (patient report) [11]: improvement of the symptomatology, in particular reduced dizziness
Tolerability ([12]; 3 g/day one week then 5 g/day): well tolerated
Dizziness, imbalance, gait (feedback by spouse) ([12]; 22 days after beginning treatment): significant reduction of dizziness and imbalance, and significant improvement of gait

— US12458614B2, “Therapeutic agents for improved mobility and cognitive function and for treating neurodegenerative diseases and lysosomal storage disorders” (priority 2017, dated 2025)
